Data: patent US6949552B2, “Remedial agent for anxiety neurosis or depression and piperazine derivative” (Taisho Pharmaceutical Co., Ltd., priority 2000, dated 2005)
Where a name gives a salt, the structure may show the parent alone.

Key:
[1] = test system: recombinant human melanocortin receptors; test: Antagonism in recombinant human melanocortin receptors
[2] = molecular target: T1, human MC4 receptor (Homo sapiens, UniProt P32245); test: MC4 receptor binding assay; details: HEK-293 cell membranes expressing human MC4 receptor; [125I]Nle4-D-Phe7-α-MSH 0.2 nM; 25° C., 120 minutes
T1 construct: purchased Biolinks Co; host or cells: HEK-293 cell membranes
Experimental: Experiment 1 [MC4 Receptor Binding Assay]
MC4 receptor binding assay was carried out according to the method described in Pharmacology & Taxicology, 79, 161-165, 1996, HEK-293 cell membranes expressing the human MC4 receptor were purchased from Biolinks Co. The cell membranes were homogenized in a 50 mM Tris hydrochloric acid buffer solution (pH 7.4) containing 2 mM ethylenediamine tetraacetic acid, 10 mM calcium chloride and 100 μM phenylmethanesulfonyl-fluoride. The homogenate was centrifuged at 48,000×g for 20 minutes at 4° C. The precipitate obtained by centrifugation was again homogenized in the same buffer solution, and the homogenate was centrifuged at 48,000×g for 20 minutes at 4° C. This procedure was repeated twice. The precipitate was suspended in 50 mM Tris hydrochloric acid buffer solution (pH 7.4) containing 2 mM ethylenediamine tetraacetic acid, 10 mM calcium chloride, 100 μM phenylmethanesulfonylfluoride and 0.1% bovine serum albumin to adjust to a protein concentration of 100 μg/ml to give a crude membrane preparation which was used for the binding assay. […] The radioactivity on the filter paper was measured in a gamma-counter. […] The IC50 value was calculated from the inhibition curve in the concentration range of 10^−9-10^−5.

[3] = test system: Male SD rats; test: Anti-anxiety action in Vogel test (Conflict test) in rats; type: in vivo, rat; details: subcutaneous 1 mg/kg, 3 mg/kg or 10 mg/kg, 30 minutes before test; electric shock 1.0 mA; 3 minutes; FIG. 2
Experimental: Anti-anxiety action of Compound 4 in Table 1 in Vogel test (Conflict test) in rats was studied.
Male SD rats weighing 220 to 240 g (Charles River Japan Inc.) were used. Rats deprived of drinking water for 48 hours were divided into 10 animals for each group. To rats of group to be administered with the test compound was subcutaneously administered the test compound which was prepared by dissolving a predetermined amount of Compound 4 in Table 1 in saline for injection and adding 0.5 M aqueous sodium hydroxide solution to adjust to pH 4-5. Thirty minutes after the administration, rats were placed in a apparatus for the test, and drinking behaviors during the time of free access to drinking water for 3 minutes were measured. During the time of free access to drinking water, an electric shock (1.0 mA) was released, every 2 seconds of cumulative licking time to the drinking nozzle. The evaluation of this experiment was carried out using the number of the electric shocks.

[4] = test system: Male SD rats; test: Anti-anxiety action in forced swim stress-induced anxiety model of rats (elevated plus-maze test); type: in vivo, rat; details: subcutaneous 0.3 mg/kg, 1 mg/kg or 3 mg/kg, 30 minutes before 2-minute forced swim stress, 5-minute period, FIG. 3
Experimental: Anti-anxiety action of Compound 4 in Table 1 in forced swim stress-induced anxiety model of rats was studied.
Male SD rats weighing 220 to 240 g (Charles River Japan Inc.) were used. Rats were divided into 10 animals for each group. To rats of group to be administered with the test compound was subcutaneously administered the test compound which was prepared by dissolving a predetermined amount of the test drug in saline for injection and adding 0.5 M aqueous sodium hydroxide solution to adjust to pH 4-5. Thirty minutes after the administration, rats were exposed to a forced swim stress by placing in a black cylinder (20 cm internal diameter, 40 cm high) containing 25 cm deep of water maintained at 25° C. Duration of the forced swim stress was 2 minutes, and the anti-anxiety action was studied by the elevated plus-maze test, which was carried out 5 minutes after the forced swim stress.
The elevated plus-maze used for the test consisted of open arms (10 cm wide, 50 cm long) and close arms (10 cm wide, 50 cm long), and the open arms and the enclosed arms were covered with 1 cm-high and 40 cm-high transparent Plexiglas, respectively. The plus-maze was placed in 50 cm high from the floor. Luminosity at the center of the maze was 40 lux. […] The amount of time spent in open arms of the maze was recorded during a 5-minute period.

[5] = test system: olfactory bulbectomized rats; test: Anti-depressant action in olfactory bulbectomized rats (open field); type: in vivo, rat; details: subcutaneous 1 mg/kg, 3 mg/kg or 10 mg/kg once a day for 2 weeks; test 24 hours after final administration; 3 minutes; FIG. 4
Text: Anti-depressant action of Compound 4 in Table 1 in olfactory bulbectomized rats was studied. Male SD rats weighing 220 to 240 g (Charles River Japan Inc.) were used. Rats were anesthetized with sodium pentobarbital, the olfactory bulbs were removed by suction using a metal pipe linked to a water aspirator. Two weeks after the removal of the olfactory bulbs, rats were divided into 10 to 11 animals for each group. The rats of one group were subcutaneously administered once a day for 2 weeks with the test drug which was prepared by dissolving a predetermined amount of the test drug in saline for injection and adding 0.5 M aqueous sodium hydroxide solution to adjust to pH 4-5. Twenty four hours after the final administration, the rats were placed in the center of a circular open field apparatus (70 cm diameter 25 blocks), and the number of crossings among blocks during 3 minutes was counted.

[6] = test system: Male SD rats; test: Anxiogenic-like activity in Vogel test in rat (Proconflict test); type: in vivo; details: intracerebroventricular administration, 30 minutes before test; electric shock 0.4 mA; 3 minutes; FIG. 1
Experimental: Anxiogenic-like activity inducing action by α-MSH and MTII in Vogel test in rat (Proconflict test) was studied.
α-MSH and MTII were purchased from Peninsula Laboratories. Male SD rats weighing 220 to 240 g (Charles River Japan Inc.) were used for animals. Rats deprived of drinking water for 48 hours were divided into 5 animals for each group. The test compound was administered to rats intracerbroventricularly at 10 μl/2 min. of the test compound which was prepared by dissolving a predetermined amount of α-MSH or MTII in saline containing 0.1% bovine serum albumin. To control rats which were not administered test compound, saline containing 0.1% bovine serum albumin was administered intracerebroventricularly at 10 μl/2 min. Thirty minutes after the administration, rats were placed in a apparatus for the test, and drinking behaviors during the time of free access to drinking water for 3 minutes were measured. During the time of free access to drinking water, an electric shock (0.4 mA) was released, every 2 seconds of cumulative licking time to the drinking nozzle. The evaluation of this experiment was carried out using the number of the electric shocks.

T1 sequence (P32245 whole entry): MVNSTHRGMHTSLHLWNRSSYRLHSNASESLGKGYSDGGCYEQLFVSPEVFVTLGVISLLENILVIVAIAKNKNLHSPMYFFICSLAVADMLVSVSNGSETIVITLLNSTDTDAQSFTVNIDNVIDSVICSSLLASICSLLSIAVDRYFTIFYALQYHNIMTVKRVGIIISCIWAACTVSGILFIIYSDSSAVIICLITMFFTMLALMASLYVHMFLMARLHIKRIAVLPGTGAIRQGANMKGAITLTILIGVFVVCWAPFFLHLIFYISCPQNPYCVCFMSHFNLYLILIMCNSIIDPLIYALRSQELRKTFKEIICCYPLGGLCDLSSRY

| Compound | melting point [°C] | also measured |
| --- | --- | --- |
| CC(C)N1CCN(C(CN2CCN(CCCCc3cccc4ccccc34)CC2)c2ccc(F)cc2)CC1.O=C(O)/C=C\C(=O)O.O=C(O)/C=C\C(=O)O.O=C(O)/C=C\C(=O)O (stereo not shown) | 127 to 129 |  |
| CN1CCN(C(CN2CCN(CCCCc3cccc4ccccc34)CC2)c2ccc(F)cc2)CC1.Cl (stereo not shown) | 193 to 195 |  |
| CN1CCC(O)(C(CN2CCN(CCCCc3cccc4ccccc34)CC2)c2ccc(F)cc2)CC1.Cl.Cl.Cl (stereo not shown) | 156 to 160 |  |
| CC(C)Oc1ccc2ccccc2c1CCCCN1CCN(CC(c2ccc(F)cc2)N2CCN(C(C)C)CC2)CC1.O=C(O)/C=C\C(=O)O.O=C(O)/C=C\C(=O)O.O=C(O)/C=C\C(=O)O (stereo not shown) | 167 to 169 |  |
| MTII |  | number of times of drinking water (number of the electric shocks) in comparison with the control group [6]: dose-dependently, significantly decreased |
| N=C(N)N1CCN(C(CN2CCN(CCCCc3cccc4ccccc34)CC2)c2ccc(F)cc2)CC1.O=C(O)/C=C\C(=O)O.O=C(O)/C=C\C(=O)O.O=C(O)/C=C\C(=O)O (stereo not shown) | 171 to 173 |  |
| α-MSH (Ac-SYSMEHFRWGKPV-NH2; ends and bridges not checked; UniProt P01189 138-150, looked up) [melanocyte stimulating hormone (melanocortin produced from POMC), purchased from Peninsula Laboratories] |  | number of times of drinking water (number of the electric shocks) in comparison with the control group [6]: dose-dependently, significantly decreased |
| CN1CCN(C(CN2CCN(CCCCc3cccc4ccccc34)CC2)c2ccc(F)cc2)CC1 (single isomer, unassigned; (-)) [Compound 6, (−)-1-[2-(4-Fluorophenyl)-2-(4-methylpiperazino)ethyl]-4-[4-naphthalen-1-yl-butyl]piperazine hydrochloride] |  | IC50 [2]: 90 nM |

Second part, led by results:

| melting point [°C] | Compound | also measured |
| --- | --- | --- |
| 193 to 195 | CN1CCN(C(CN2CCN(CCCCc3cccc4ccccc34)CC2)c2ccc(F)cc2)CC1.Cl.Cl.Cl.Cl (stereo not shown) [Compound 4, 1-[2-(4-fluorophenyl)-2-(4-methylpiperazino)ethyl]-4-(4-naphthalen-1-yl-butyl)piperazine tetrahydrochloride] | action in recombinant human melanocortin receptors (selectivity) [1]: high selective antagonist; IC50 [2]: 164 nM; decreased number of times of drinking water (number of the electric shocks) caused by electric shock [3]: significantly, dose-dependently antagonized; decreased amount of time spent in open arms after forced swim stress [4]: significantly, dose-dependently antagonized; increased number of crossings among blocks in the open field [5]: significantly, dose-dependently antagonized |
| 233 to 235 | COc1ccc2ccccc2c1CCCCN1CCN(CC(c2ccc(F)cc2)C2CCN(C(C)C)CC2)CC1.Cl.Cl.Cl (stereo not shown) |  |
| 138 to 140 | COc1ccc(C(CN2CCN(CCCCc3cccc4ccccc34)CC2)N2CCN(C)CC2)cc1.O=C(O)/C=C\C(=O)O.O=C(O)/C=C\C(=O)O.O=C(O)/C=C\C(=O)O (stereo not shown) |  |
| 152 to 154 | CN1CCN(C(CN2CCN(CCCCc3cccc4ccccc34)CC2)c2ccc(N)cc2)CC1.O=C(O)/C=C\C(=O)O.O=C(O)/C=C\C(=O)O.O=C(O)/C=C\C(=O)O (stereo not shown) |  |
| 170 to 173 | CN1CCN(C(CN2CCN(CCCCc3noc4cc(F)ccc34)CC2)c2ccc(F)cc2)CC1.O=C(O)/C=C\C(=O)O.O=C(O)/C=C\C(=O)O.O=C(O)/C=C\C(=O)O (stereo not shown) |  |
| 183 to 185 | COc1ccc2ccccc2c1CCCCN1CCN(CC(c2ccc(F)cc2)N2CCN(C(C)C)CC2)CC1.Cl.Cl.Cl.Cl (stereo not shown) |  |
